# Reference: patent publication US20250084084A1, “Crystalline form of (2R)-2-(5-fluoro-2-methoxypyridin-4-yl)-1-[(2S)-7-methyl-6-(pyrimidin-2-yl)-3,4-dihydro-1H-spiro[1,8-naphthyridine-2,3-pyrrolidin]-1-yl]propan-1-one” (Pfizer Inc., priority 2020, published 2025)
# Like-named read-outs stand apart in the source and are kept apart here.
# Target: α-melanocyte-stimulating hormone receptor (hMC4R) (Homo sapiens (Human), UniProt P32245)
# Assay: In vitro binding affinity assay using hMC4R (radioligand competition binding, [125I]-(Nle4, D-Phe7)-α-MSH)
# Details: geometric mean
# How it was run: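 Membranes from CHO cells stably expressing hMC4R (2 μg/well) incubated 2 h RT with [125I]-NDP-α-MSH and compound (300 nM-0.01 nM, 1% DMSO); 2 μM α-MSH defined nonspecific binding. Filtration and scintillation counting; Ki from IC50 via Cheng-Prusoff.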
# [1] = read-out: Ki (nM) geometric mean
# α-melanocyte-stimulating hormone receptor (hMC4R), sequence (P32245 whole entry): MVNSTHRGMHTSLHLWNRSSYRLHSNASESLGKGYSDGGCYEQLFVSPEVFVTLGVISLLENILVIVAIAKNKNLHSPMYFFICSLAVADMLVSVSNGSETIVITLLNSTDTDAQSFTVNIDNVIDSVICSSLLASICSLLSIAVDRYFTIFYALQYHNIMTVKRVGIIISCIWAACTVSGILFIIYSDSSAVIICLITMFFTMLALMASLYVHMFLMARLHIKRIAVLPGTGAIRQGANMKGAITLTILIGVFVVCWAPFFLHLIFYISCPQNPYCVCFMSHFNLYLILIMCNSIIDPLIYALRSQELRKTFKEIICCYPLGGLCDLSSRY
Compound,Ki (read-out: Ki (nM) geometric),Ki [1]
"COc1cc([C@@H](C)C(=O)N2CC[C@]3(CCc4cc(-c5nnn(C)n5)c(C)nc4N3)C2)c(F)cn1 [Example 116, (2R)-2-(5-fluoro-2-methoxypyridin-4-yl)-1-[(2R)-7-methyl-6-(2-methyl-2H-tetrazol-5-yl)-3,4-dihydro-1H-spiro[1,8-naphthyridine-2,3′-pyrrolidin]-1′-yl]propan-1-one]",7.1 nM,
"COc1cc([C@@H](C)C(=O)N2CC[C@@]3(CCc4cc(-c5cn(C(F)(F)F)c(C)n5)c(C)nc4N3)C2)c(F)cn1 [Example 27, (2R)-2-(5-fluoro-2-methoxypyridin-4-yl)-1-{(2S)-7-methyl-6-[2-methyl-1-(trifluoromethyl)-1H-imidazol-4-yl]-3,4-dihydro-1H-spiro[1,8-naphthyridine-2,3′-pyrrolidin]-1′-yl}propan-1-one]",,2 nM
"[2H]C([2H])([2H])Oc1cc([C@@H](C)C(=O)N2CC[C@@]3(CCc4cc(-c5ncccn5)c(C)nc4N3)C2)c(F)cn1 [Example 74, (2R)-2-{5-fluoro-2-[(^2H3)methyloxy]pyridin-4-yl}-1-[(2S)-7-methyl-6-(pyrimidin-2-yl)-3,4-dihydro-1H-spiro[1,8-naphthyridine-2,3′-pyrrolidin]-1′-yl]propan-1-one]",,1.3 nM
"COc1cc([C@@H](C)C(=O)N2CC[C@@]3(CCc4cc(-c5ccc(C(F)F)nc5)c(C)nc4N3)C2)c(F)cn1 [Example 174, (2R)-1-{(2S)-6-[6-(difluoromethyl)pyridin-3-yl)-7-methyl-3,4-dihydro-1H-spiro[1,8-naphthyridine-2,3′-pyrrolidin]-1′-yl}-2-(5-fluoro-2-methoxypyridin-4-yl)propan-1-one]",26 nM,
"COc1cc([C@@H](C)C(=O)N2CC[C@@]3(CCc4cc(-c5cnn(C)c5)c(C)nc4N3)C2)c(Cl)cn1 (single isomer, unassigned) [Example 104]",0.48 nM,
"COc1cc([C@@H](C)C(=O)N2CC[C@@]3(CCc4cc(-c5cncc(C)n5)c(C)nc4N3)C2)c(F)cn1 [Example 156, (2R)-2-(5-fluoro-2-methoxypyridin-4-yl)-1-[(2S)-7-methyl-6-(6-methylpyrazin-2-yl)-3,4-dihydro-1H-spiro[1,8-naphthyridine-2,3′-pyrrolidin]-1′-yl]propan-1-one]",5.9 nM,
"COc1cc([C@@H](C)C(=O)N2CC[C@@]3(CCc4cc(-c5cccc(-c6nnc(C)o6)n5)c(C)nc4N3)C2)c(F)cn1 [Example 152, (2R)-2-(5-fluoro-2-methoxypyridin-4-yl)-1-{(2S)-7-methyl-6-[6-(5-methyl-1,3,4-oxadiazol-2-yl)pyridin-2-yl]-3,4-dihydro-1H-spiro[1,8-naphthyridine-2,3′-pyrrolidin]-1′-yl}propan-1-one]",2.5 nM,
"COc1cc([C@@H](C)C(=O)N2CC[C@@]3(CCc4cc(-c5ncccn5)c(C)nc4N3)C2)c(F)cn1 [Example 14, (2R)-2-(5-Fluoro-2-methoxypyridin-4-yl)-1-[(2S)-7-methyl-6-(pyrimidin-2-yl)-3,4-dihydro-1H-spiro[1,8-naphthyridine-2,3′-pyrrolidin]-1′-yl]propan-1-one]",,0.46 nM
"Cc1nc2c(cc1-c1ncccn1)CC[C@@]1(CCN(C(=O)Cc3cc(F)c(F)c(F)c3)C1)N2 [Example 54, 1-[(2S)-7-methyl-6-(pyrimidin-2-yl)-3,4-dihydro-1H-spiro[1,8-naphthyridine-2,3′-pyrrolidin]-1′-yl]-2-(3,4,5-trifluorophenyl)ethan-1-one]",,0.93 nM
"COc1cc([C@@H](C)C(=O)N2CC[C@@]3(CCc4cc(-c5nc(C)cc(C)n5)c(C)nc4N3)C2)c(F)cn1 [Example 184, (2R)-1-[(2S)-6-(4,6-dimethylpyrimidin-2-yl)-7-methyl-3,4-dihydro-1H-spiro[1,8-naphthyridine-2,3′-pyrrolidin]-1′-yl]-2-(5-fluoro-2-methoxypyridin-4-yl)propan-1-one]",6.3 nM,
"COc1cc([C@@H](C)C(=O)N2CC[C@@]3(CCc4cc(-c5cnsc5)c(C)nc4N3)C2)c(F)cn1 [Example 150, (2R)-2-(5-fluoro-2-methoxypyridin-4-yl)-1-[(2S)-7-methyl-6-(1,2-thiazol-4-yl)-3,4-dihydro-1H-spiro[1,8-naphthyridine-2,3′-pyrrolidin]-1′-yl]propan-1-one]",3.9 nM,
"COc1cc([C@@H](C)C(=O)N2CC[C@@]3(CCc4cc(-c5ccncc5)c(C)nc4N3)C2)c(F)cn1 [Example 169, (2R)-2-(5-fluoro-2-methoxypyridin-4-yl)-1-[(2S)-7-methyl-6-(pyridin-4-yl)-3,4-dihydro-1H-spiro[1,8-naphthyridine-2,3′-pyrrolidin]-1′-yl]propan-1-one]",7.6 nM,
"Cc1nc2c(cc1-c1ncccn1)CC[C@@]1(CCN(C(=O)[C@H](C)c3cc(N(C)C)ncc3F)C1)N2 (single isomer, unassigned) [Example 81]",,6.6 nM
"COc1cc([C@@H](C)C(=O)N2CC[C@@]3(CCc4cc(C5CCOCC5)c(C)nc4N3)C2)c(F)cn1 [Example 131, (2R)-2-(5-fluoro-2-methoxypyridin-4-yl)-1-[(2S)-7-methyl-6-(oxan-4-yl)-3,4-dihydro-1H-spiro[1,8-naphthyridine-2,3′-pyrrolidin]-1′-yl]propan-1-one]",5.8 nM,
"COc1cc([C@@H](C)C(=O)N2CC[C@@]3(CCc4cc(-c5nc(C(C)C)ns5)c(C)nc4N3)C2)c(F)cn1 [Example 162, (2R)-2-(5-fluoro-2-methoxypyridin-4-yl)-1-{(2S)-7-methyl-6-[3-(propan-2-yl)-1,2,4-thiadiazol-5-yl]-3,4-dihydro-1H-spiro[1,8-naphthyridine-2,3′-pyrrolidin]-1′-yl}propan-1-one]",8.2 nM,
"COc1cc([C@@H](C)C(=O)N2CC[C@@]3(CCc4cc(-c5ccc(F)cn5)c(C)nc4N3)C2)c(F)cn1 [Example 139, (2R)-2-(5-fluoro-2-methoxypyridin-4-yl)-1-[(2S)-6-(5-fluoropyridin-2-yl)-7-methyl-3,4-dihydro-1H-spiro[1,8-naphthyridine-2,3′-pyrrolidin]-1′-yl]propan-1-one]",13 nM,
"COc1cc([C@](C)(F)C(=O)N2CC[C@@]3(CCc4cc(-c5ncccn5)c(C)nc4N3)C2)ccn1 (single isomer, unassigned) [Example 46]",,3.5 nM
"COc1cc([C@@H](C)C(=O)N2CC[C@@]3(CCc4cc(-c5nc(C(F)(F)F)n(C)n5)c(C)nc4N3)C2)c(Cl)cn1 (single isomer, unassigned) [Example 94]",,1.2 nM
"COc1cc([C@@H](C)C(=O)N2CC[C@@]3(CCc4cc(-c5ncccn5)c(C)nc4N3)C2)c(C(F)(F)F)cn1 (single isomer, unassigned) [Example 40]",,150 nM
"COc1cc([C@@H](C)C(=O)N2CC[C@@]3(CCc4cc(-c5ccc(OC(F)(F)F)cn5)c(C)nc4N3)C2)c(F)cn1 [Example 180, (2R)-2-(5-fluoro-2-methoxypyridin-4-yl)-1-{(2S)-7-methyl-6-[5-(trifluoromethoxy)pyridin-2-yl]-3,4-dihydro-1H-spiro[1,8-naphthyridine-2,3′-pyrrolidin]-1′-yl}propan-1-one]",21 nM,
"COc1cc([C@@H](C)C(=O)N2CC[C@@]3(CCc4cc(-c5ncc(C(F)(F)F)s5)c(C)nc4N3)C2)c(F)cn1 [Example 201, (2R)-2-(5-fluoro-2-methoxypyridin-4-yl)-1-{(2S)-7-methyl-6-[5-(trifluoromethyl)-1,3-thiazol-2-yl]-3,4-dihydro-1H-spiro[1,8-naphthyridine-2,3′-pyrrolidin]-1′-yl}propan-1-one]",110 nM,
"COc1cc([C@@H](C)C(=O)N2CC[C@@]3(CCc4cc(-c5cnc(C)s5)c(C)nc4N3)C2)c(F)cn1 [Example 153, (2R)-2-(5-fluoro-2-methoxypyridin-4-yl)-1-[(2S)-7-methyl-6-(2-methyl-1,3-thiazol-5-yl)-3,4-dihydro-1H-spiro[1,8-naphthyridine-2,3′-pyrrolidin]-1′-yl]propan-1-one]",3.3 nM,
"[2H]c1cc([2H])nc(-c2cc3c(nc2C)N[C@@]2(CC3)CCN(C(=O)[C@H](C)c3cc(OC)ncc3F)C2)n1 [Example 18, (2R)-2-(5-Fluoro-2-methoxypyridin-4-yl)-1-{(2S)-7-methyl-6-[(4,6-2H2)pyrimidin-2-yl]-3,4-dihydro-1H-spiro[1,8-naphthyridine-2,3′-pyrrolidin]-1′-yl}propan-1-one]",,0.18 nM
"COc1cc([C@@H](C)C(=O)N2CC[C@@]3(CCc4cc(-c5cccc(C(F)F)n5)c(C)nc4N3)C2)c(F)cn1 [Example 181, (2R)-1-{(2S)-6-[6-(difluoromethyl)pyridin-2-yl)-7-methyl-3,4-dihydro-1H-spiro[1,8-naphthyridine-2,3′-pyrrolidin]-1′-yl}-2-(5-fluoro-2-methoxypyridin-4-yl)propan-1-one]",2.4 nM,
"COc1cc([C@@H](C)C(=O)N2CC[C@@]3(CCc4cc(-c5nccc(C(F)F)n5)c(C)nc4N3)C2)c(F)cn1 [Example 200, (2R)-1-{(2S)-6-[4-(difluoromethyl)pyrimidin-2-yl]-7-methyl-3,4-dihydro-1H-spiro[1,8-naphthyridine-2,3′-pyrrolidin]-1′-yl}-2-(5-fluoro-2-methoxypyridin-4-yl)propan-1-one]",0.82 nM,
"Cc1nc2c(cc1-c1nnn(C)n1)CC[C@@]1(CCN(C(=O)[C@H](C)c3ccc(OC(F)F)nc3)C1)N2 (single isomer, unassigned) [Example 107]",57 nM,
"COc1cc([C@@H](C)C(=O)N2CC[C@@]3(CCc4cc(-c5nc(C)c(C)s5)c(C)nc4N3)C2)c(F)cn1 [Example 163, (2R)-1-[(2S)-6-(4,5-dimethyl-1,3-thiazol-2-yl)-7-methyl-3,4-dihydro-1H-spiro[1,8-naphthyridine-2,3′-pyrrolidin]-1′-yl]-2-(5-fluoro-2-methoxypyridin-4-yl)propan-1-one]",2.8 nM,
